Laboratory results taken from patent US4576943A, “Pyrazolo[1,5-a]pyrimidines” (American Cyanamid Company, priority 1984, dated 1986).

Columns and labels:
[1] = Hypotensive activity in spontaneously hypertensive rats; format: in vivo, spontaneously hypertensive rats of the Okamoto strain; conditions: 100 mg/kg by gavage, two doses 24 hours apart, measured at 28 hours after the initial dose; one or two rats
Procedure: The novel compounds of the present invention are active hypotensive agents and were tested for hypotensive activity by the method of P. S. Chan and D. Poorvin, Clinical and Experimental Hypertension, 1 (6), 817-830 (1979). […] One to 3 rats are used per test compound. A rat is dosed by gavage with a test compound suspended in 2% pre-boiled starch at a concentration of 50 mg/ml, at a dose of 100 mg/kg of body weight or less, with 0.9% sodium chloride loading at a dose of 25 ml/kg of body weight. A second identical dose of the test compound, without sodium chloride loading is given 24 hours later. At 28 hours after the initial dose the mean arterial blood pressure is measured by the method of Chan and Poorvin (see above). The procedure is repeated in a second and third rat when necessary. The results of this test on representative compounds of the present invention which were obtained using one or two rats, at a dose of 100 mg/kg of body weight appear below in Table I.

[2] = system: brain-specific receptors (tritiated benzodiazepine binding, P2-synaptosomal fraction of rat whole cortex); assay: Inhibition of the binding of 3H-benzodiazepine to brain-specific receptors of rats; parameters: species or system Male albino rats (Wistar strain); conditions: 3H-diazepam (1.5 nM) or 3H-flunitrazepam (1.0 nM), pH 7.4, 30 minutes in ice; test concentration not given
Hypoxic Survival Test = format: in vivo, Royal Hart mice; conditions: 10% oxygen, 5 minutes
Procedure: Groups of 20 Royal Hart mice (6 weeks of age) are injected intraperitoneally with 10, 50 or 100 mg/kg of test compound 30 minutes prior to placing them in a hypoxic mixture (10% oxygen in 90% […]) and measuring survival after 5 minutes.
A separate group of 20 mice is injected intraperitoneally with saline solution (0.01 cc/g of body weight) and processed as described above.
Still another group of 20 mice is injected intraperitoneally with 0.125 mg/kg of physostigmine and processed as described above.

[3] = Non-conditioned passive avoidance test in rats (antianxiety); format: in vivo, Wistar strain rats; parameters: key: Active: the number of shocks received by the test group is significantly higher than the control group by the Mann-Witney U test; conditions: 25 mg/kg, oral or intraperitoneal
Procedure: The antianxiety effects of the novel compounds of the present invention have been assessd in a non-conditioned passive avoidance procedure described by J. R. Vogel, B. Beer and D. E. Clody, "A Simple and Reliable Conflict Procedure for Testing Antianxiety Agents", Psychopharmacologia, 21, 1-7 (1971). A conflict situation was induced in rats by a modification of this method.
Groups of 6 naive, Wistar strain rats, weighing 200-240 g each, were deprived of water for 48 hours and food for 24 hours. The test compounds were administered in single or graded, oral or intraperitoneal doses, suspended in a 2% starch vehicle containing 0.5% v/v polyethylene glycol and one drop of Polysorbate 80. Control animals received the vehicle alone. At 30 or 60 minutes each rat was placed in an individual plexiglass chamber. Water was available ad libitum from a tap located in the rear of the chamber. A 0.7 milliampere DC shocking current was established between the stainless steel grid floor and the tap. After 20 licks of non-shocked drinking, a shock was delivered for 2 seconds and then further shocks were delivered on a ratio of one shock for 2 seconds for every 20 licks. This was continued for a total of 3 minutes. The number of shocks taken by each rat during the 3 minute interval was recorded and compared to a control group.

[4] = Passive Avoidance Anoxic Induced Amnesia Test; format: in vivo, Swiss-Webster, middle-aged mice; conditions: 100 mg/kg i.p., 30 minutes prior to training and testing; over saline control
Text: Another in vivo test associated with decreased neural function in mammals is the Passive Avoidance Anoxic Induced Amnesia Test. This test is used to determine the attenuation of anoxic induced amnesia in mice treated with drug, as compared to saline treated control animals with no drug.
A shock-motivated, single trial, step-through passive avoidance procedure is used. Groups of 25 Swiss-Webster, middle-aged mice (9 months of age) are placed singly in the front chamber of a 2-chamber box and are allowed to voluntarily cross into the rear chamber. As soon as the mouse enters the rear chamber, a guillotine door automatically traps the animal and a mild electric shock (0.4 mA for 4 seconds) is delivered to its feet. Following the foot shock, the mice are initially placed in an anoxic environment (0% oxygen) for 12 seconds, which quickly induces unconsciousness. They are then placed in a hypoxic environment (15% oxygen) for four minutes which prolongs the oxygen deprived state, maintaining unconsciousness. All testing is performed 24 hours later, and in all cases the mice appear fully recovered from the previous anoxic/hypoxic treatment. All test compounds are administered intraperitoneally at a dose of 10-100 mg/kg, 30 minutes prior to training and testing. […]
The latency to enter the rear chamber is recorded for both training and testing. […]

Compound | Mean Arterial Blood Pressure [1] | % Inhibition of the binding of 3H-benzodiazepine [2] [%] | Result (non-conditioned passive avoidance) [3] | further results
N#Cc1c(N2CCCCC2)nn2c(-c3cccnc3)ccnc12 [2-(1-Piperidinyl)-7-(3-pyridinyl)pyrazolo[1,5-a]pyrimidine-3-carbonitrile] | 141 mm of mercury | 14 |  | % Survivors (Hypoxic Survival Test; 100 mg/kg i.p.): 45%
N#Cc1c(N2CCOCC2)nn2c(-c3cccc(C(F)(F)F)c3)ccnc12 [2-(4-Morpholinyl)-7-[3-(trifluoromethyl)phenyl]pyrazolo[1,5-a]pyrimidine-3-carbonitrile] | 142 mm of mercury |  | Active | 
N#Cc1c(N2CCN(CCO)CC2)nn2c(-c3cccc(C(F)(F)F)c3)ccnc12 [2-[4-(2-Hydroxyethyl)-1-piperazinyl]-7-[3-(trifluoromethyl)phenyl]pyrazolo[1,5-a]pyrimidine-3-carbonitrile] | 111 mm of mercury | 41 |  | % Survivors (Hypoxic Survival Test; 10 mg/kg i.p.): 45%
N#Cc1c(N2CCN(Cc3ccccc3)CC2)nn2c(-c3cccc(C(F)(F)F)c3)ccnc12 [2-[4-(Phenylmethyl)-1-piperazinyl]-7-[3-(trifluoromethyl)phenyl]pyrazolo[1,5-a]pyrimidine-3-carbonitrile] |  |  |  | % Survivors (Hypoxic Survival Test; 50 mg/kg i.p.): 52%; % Improvement [4]: 44%
N#Cc1c(N2CCN(Cc3cccc(Cl)c3)CC2)nn2c(-c3ccccc3)ccnc12 [2-[4-[(3-Chlorophenyl)methyl]-1-piperazinyl]-7-phenylpyrazolo[1,5-a]pyrimidine-3-carbonitrile] |  |  | Active | 
Cc1cc(-c2ccccc2)n2nc(N3CCN(Cc4ccccc4)CC3)c(C#N)c2n1 [5-Methyl-7-phenyl-2-[4-(phenylmethyl)-1-piperazinyl]-pyrazolo[1,5-a]pyrimidine-3-carbonitrile] | 131 mm of mercury |  | Active | 
